In experiment [1] the target is Mcl-1 protein (UniProtKB primary accession number: Q07820) (Homo sapiens, UniProt Q07820). Briefly: Inhibition of Mcl-1 by fluorescence polarisation, Method 1. Format: binding. As to conditions: read-out: IC50 (M) Mcl-1 FP. The method in brief: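 Binding was measured as fluorescence polarisation of a fluorescein-labelled ligand (1 nM) displaced from Mcl-1 (5 nM), both final. Compounds ran as 11-point series with final DMSO at 5%.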

Experiment [2] has as its system H929 multiple myeloma tumour line. Briefly: In vitro cytotoxicity, Microculture Tetrazolium Assay. The experiment is classed as cell-based. As to conditions: Homo sapiens, NCI-H929, 48 h, H929 cells, 48 hours exposure, MTT; read-out: IC50 (μM) MTT H929. The method, then:
The cytotoxicity studies were carried out on the H929 multiple myeloma tumour line.
The cells are distributed onto microplates and exposed to the test compounds for 48 hours.

[3] abbreviates: fluorescence polarisation test, Method 2 values are underlined in the patent (underlining not visible here).
Setting [4] is: fluorescence polarisation, Method 1, or Method 2.

As a reminder, the IC50 is the concentration that inhibits the measured activity by half.

Read-outs that look alike come from different tables or passages of the source.

Sequence of Mcl-1 protein (Q07820 whole entry): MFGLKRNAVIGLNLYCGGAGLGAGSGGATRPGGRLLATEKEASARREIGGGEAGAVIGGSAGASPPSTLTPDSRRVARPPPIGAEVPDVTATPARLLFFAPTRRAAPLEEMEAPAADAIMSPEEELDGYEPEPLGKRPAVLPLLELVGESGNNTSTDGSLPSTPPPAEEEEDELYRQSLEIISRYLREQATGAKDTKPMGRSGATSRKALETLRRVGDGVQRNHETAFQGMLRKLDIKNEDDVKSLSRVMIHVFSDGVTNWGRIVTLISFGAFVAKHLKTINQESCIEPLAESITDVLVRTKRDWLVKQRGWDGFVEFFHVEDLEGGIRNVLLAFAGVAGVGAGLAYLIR

Take `COc1cc(COc2ccccc2CC(Oc2ncnc3sc(-c4ccc(F)cc4)c(-c4ccc(OCCN5CCN(C)CC5)c(Cl)c4C)c23)C(=O)O)ccn1` [Example 21, (2R)-2-{[(5Sa)-5-{3-chloro-2-methyl-4-[2-(4-methylpiperazin-1-yl)ethoxy]phenyl}-6-(4-fluorophenyl)thieno[2,3-d]pyrimidin-4-yl]oxy}-3-{2-[(2-methoxypyridin-4-yl)methoxy]phenyl}propanoic acid]: the IC50 in experiment [1] (setting [3]) amounted to 1.6e-08 M; in experiment [2] it was 0.162 µM.

For the compound `Cc1c(-c2c(-c3cccc(F)c3F)sc3ncnc(OC(Cc4ccccc4OCc4ccnn4C(C)(C)C)C(=O)O)c23)ccc(OCCN(C)C)c1Cl` [Example 755, (2R)-3-{2-[(1-tert-butyl-1H-pyrazol-5-yl)methoxy]phenyl}-2-{[(5Sa)-5-{3-chloro-4-[2-(dimethylamino)ethoxy]-2-methylphenyl}-6-(2,3-difluorophenyl)thieno[2,3-d]pyrimidin-4-yl]oxy}propanoic acid], the figures for the 50% inhibitory concentration (IC50) in experiment [1] (setting [4]) and in experiment [2] were 4.65e-09 M and 0.032 µM, respectively.

Consider `Cc1ncc(COc2ccccc2CC(Oc2ncnc3sc(-c4ccco4)c(-c4ccc(OCCN5CCN(C)CC5)c(Cl)c4C)c23)C(=O)O)cn1` [Example 271, (2R)-2-{[(5Sa)-5-{3-chloro-2-methyl-4-[2-(4-methylpiperazin-1-yl)ethoxy]phenyl}-6-(furan-2-yl)thieno[2,3-d]pyrimidin-4-yl]oxy}-3-{2-[(2-methylpyrimidin-5-yl)methoxy]phenyl}propanoic acid], for which the values for the IC50 in experiment [1] (setting [3]) and in experiment [2] were 1.6e-08 M and 0.197 µM, respectively.

As for `Cc1c(-c2c(-c3ccc(Cl)o3)sc3ncnc(OC(Cc4ccccc4OCc4ccncn4)C(=O)O)c23)ccc(OCCN2CCN(C)CC2)c1Cl` [Example 370, (2R)-2-{[6-(5-chlorofuran-2-yl)-(5Sa)-5-{3-chloro-2-methyl-4-[2-(4-methylpiperazin-1-yl)ethoxy]phenyl}thieno[2,3-d]pyrimidin-4-yl]oxy}-3-[2-(pyrimidin-4-ylmethoxy)phenyl]propanoic acid], the IC50 in experiment [1] (setting [3]) came out at 8.7e-09 M; in experiment [2], 0.018 µM.

As for `CCC#Cc1sc2ncnc(OC(Cc3ccccc3OCc3ccnn3CCCC)C(=O)O)c2c1-c1ccc(OCCN2CCN(C)CC2)c(Cl)c1C` [Example 612, (2R)-3-{2-[(1-butyl-1H-pyrazol-5-yl)methoxy]phenyl}-2-{[6-(but-1-yn-1-yl)-(5Sa)-5-{3-chloro-2-methyl-4-[2-(4-methylpiperazin-1-yl)ethoxy]phenyl}thieno[2,3-d]pyrimidin-4-yl]oxy}propanoic acid], the IC50 is 3.5e-09 M in experiment [1] (setting [4]) and 0.02 µM in experiment [2].

Turning to `COc1ccc(Cl)cc1CC(Oc1ncnc2sc(-c3ccc(Cl)o3)c(-c3ccc(OCCN4CCN(C)CC4)c(Cl)c3C)c12)C(=O)O` [Example 714, (2R)-2-{[6-(5-chlorofuran-2-yl)-(5Sa)-5-{3-chloro-2-methyl-4-[2-(4-methylpiperazin-1-yl)ethoxy]phenyl}thieno[2,3-d]pyrimidin-4-yl]oxy}-3-(5-chloro-2-methoxyphenyl)propanoic acid], the values for the IC50 in experiment [1] (setting [4]) and in experiment [2] were 3.4e-08 M and 0.188 µM, respectively.

`CCn1nccc1COc1ccccc1CC(Oc1ncnc2sc(-c3ccc(Cl)o3)c(-c3ccc(OCCN4CCN(C)CC4)c(Cl)c3C)c12)C(=O)O` [Example 372, (2R)-2-{[6-(5-chlorofuran-2-yl)-(5Sa)-5-{3-chloro-2-methyl-4-[2-(4-methylpiperazin-1-yl)ethoxy]phenyl}thieno[2,3-d]pyrimidin-4-yl]oxy}-3-{2-[(1-ethyl-1H-pyrazol-5-yl)methoxy]phenyl}propanoic acid]: the IC50 in experiment [1] (setting [3]) came to 9.7e-09 M; in experiment [2] it was 0.018 µM.

For `COc1ccccc1CC(Oc1ncnc2sc(-c3ccccc3Cl)c(-c3ccc(OCCN4CCN(C)CC4)c(Cl)c3C)c12)C(=O)O` [Example 565, (2R)-2-{[(5Sa)-5-{3-chloro-2-methyl-4-[2-(4-methylpiperazin-1-yl)ethoxy]phenyl}-6-(2-chlorophenyl)thieno[2,3-d]pyrimidin-4-yl]oxy}-3-(2-methoxyphenyl)propanoic acid], the half-maximal inhibitory concentration (IC50) in experiment [1] (setting [4]) came out at 4.8e-07 M; in experiment [2], 1.96 µM.

For `CCc1sc2ncnc(OC(Cc3ccccc3)C(=O)O)c2c1-c1cc2nc(CN3CCOCC3)oc2c(Cl)c1C` [Example 446, (2R)-2-({(5Sa)-5-[7-chloro-6-methyl-2-(morpholin-4-ylmethyl)-1,3-benzoxazol-5-yl]-6-ethylthieno[2,3-d]pyrimidin-4-yl}oxy)-3-phenylpropanoic acid], the results for the IC50 in experiment [1] (setting [4]) and in experiment [2] were 1.1e-07 M and 25.7 µM, respectively.

Consider `CNCCOc1ccc(-c2c(-c3ccco3)sc3ncnc(OC(Cc4ccccc4OC)C(=O)O)c23)c(C)c1Cl` [Example 331, (2R)-2-{[(5Sa)-5-{3-chloro-2-methyl-4-[2-(methylamino)ethoxy]phenyl}-6-(furan-2-yl)thieno[2,3-d]pyrimidin-4-yl]oxy}-3-(2-methoxyphenyl)propanoic acid], for which the IC50 in experiment [1] (setting [3]) was 6e-09 M; in experiment [2], 0.394 µM.

With `Cc1c(-c2c(-c3ccc(Cl)o3)sc3ncnc(OC(Cc4ccccc4OCc4cocn4)C(=O)O)c23)ccc(OCCN2CCN(C)CC2)c1Cl` [Example 376, (2R)-2-{[6-(5-chlorofuran-2-yl)-(5Sa)-5-{3-chloro-2-methyl-4-[2-(4-methylpiperazin-1-yl)ethoxy]phenyl}thieno[2,3-d]pyrimidin-4-yl]oxy}-3-[2-(1,3-oxazol-4-ylmethoxy)phenyl]propanoic acid], the figures for the IC50 in experiment [1] (setting [3]) and in experiment [2] were 2e-09 M and 0.076 µM, respectively.

Consider `Cc1c(-c2c(-c3ccco3)sc3ncnc(OC(Cc4ccccc4OCc4cccnn4)C(=O)O)c23)ccc(OCCN2CCN(C)CC2)c1Cl` [Example 243, (2R)-2-{[(5Sa)-5-{3-chloro-2-methyl-4-[2-(4-methylpiperazin-1-yl)ethoxy]phenyl}-6-(furan-2-yl)thieno[2,3-d]pyrimidin-4-yl]oxy}-3-[2-(pyridazin-3-ylmethoxy)phenyl]propanoic acid], for which the figures for the IC50 in experiment [1] (setting [3]) and in experiment [2] were 5.6e-09 M and 0.211 µM, respectively.

Take `Cc1c(-c2c(-c3ccco3)sc3ncnc(OC(Cc4ccccc4OCc4ccnn4C(C)C)C(=O)O)c23)ccc(OCCN2CCN(C)CC2)c1Cl` [Example 261, (2R)-2-{[(5Sa)-5-{3-chloro-2-methyl-4-[2-(4-methylpiperazin-1-yl)ethoxy]phenyl}-6-(furan-2-yl)thieno[2,3-d]pyrimidin-4-yl]oxy}-3-(2-{[1-(propan-2-yl)-1H-pyrazol-5-yl]methoxy}phenyl)propanoic acid]: the IC50 in experiment [1] (setting [3]) worked out at 1.7e-09 M; in experiment [2], 0.018 µM.

For `CCc1sc2ncnc(OC(Cc3cccc4c3OCO4)C(=O)O)c2c1-c1ccc(OCCN2CCN(C)CC2)c(Cl)c1C` [Example 460, (2R)-3-(1,3-benzodioxol-4-yl)-2-[((5Sa)-5-{3-chloro-2-methyl-4-[2-(4-methylpiperazin-1-yl)ethoxy]phenyl}-6-ethylthieno[2,3-d]pyrimidin-4-yl)oxy]propanoic acid], the IC50 in experiment [1] (setting [4]) came to 1.3e-07 M; in experiment [2], 6.82 µM.

Turning to `COc1nccc(COc2ccccc2CC(Oc2ncnc3sc(-c4ccc(F)c(OCCN5CCOCC5)c4)c(-c4ccc(OCCN5CCN(C)CC5)c(Cl)c4C)c23)C(=O)O)n1` [Example 596, (2R)-2-[((5Sa)-5-{3-chloro-2-methyl-4-[2-(4-methylpiperazin-1-yl)ethoxy]phenyl}-6-{4-fluoro-3-[2-(morpholin-4-yl)ethoxy]phenyl}thieno[2,3-d]pyrimidin-4-yl)oxy]-3-{2-[(2-methoxypyrimidin-4-yl)methoxy]phenyl}propanoic acid], the IC50 in experiment [1] (setting [4]) was 2.7e-09 M; in experiment [2], 0.12 µM.

As for `Cc1c(-c2c(-c3ccc(Cl)o3)sc3ncnc(OC(Cc4ccccc4OCC4CCCO4)C(=O)O)c23)ccc(OCCN2CCN(C)CC2)c1Cl` [Example 364, (2R)-2-{[6-(5-chlorofuran-2-yl)-(5Sa)-5-{3-chloro-2-methyl-4-[2-(4-methylpiperazin-1-yl)ethoxy]phenyl}thieno[2,3-d]pyrimidin-4-yl]oxy}-3-{2-[(2R)-tetrahydrofuran-2-ylmethoxy]phenyl}propanoic acid], the results for the IC50 in experiment [1] (setting [3]) and in experiment [2] were 5.1e-09 M and 0.052 µM, respectively.

For `COc1cc(-c2sc3ncnc(OC(Cc4ccccc4OCc4cnccn4)C(=O)O)c3c2-c2ccc(OCCN3CCN(C)CC3)c(Cl)c2C)ccc1F` [Example 386, (2R)-2-{[(5Sa)-5-{3-chloro-2-methyl-4-[2-(4-methylpiperazin-1-yl)ethoxy]phenyl}-6-(4-fluoro-3-methoxyphenyl)thieno[2,3-d]pyrimidin-4-yl]oxy}-3-[2-(pyrazin-2-ylmethoxy)phenyl]propanoic acid], the results for the half-inhibitory concentration (IC50) in experiment [1] (setting [3]) and in experiment [2] were 1e-08 M and 0.075 µM, respectively.

For `COc1ccccc1CC(Oc1ncnc2sc(-c3csc4ccsc34)c(-c3ccc(OCCN4CCN(C)CC4)c(Cl)c3C)c12)C(=O)O` [Example 571, (2R)-2-{[(5Sa)-5-{3-chloro-2-methyl-4-[2-(4-methylpiperazin-1-yl)ethoxy]phenyl}-6-(thieno[3,2-b]thiophen-3-yl)thieno[2,3-d]pyrimidin-4-yl]oxy}-3-(2-methoxyphenyl)propanoic acid], the IC50 in experiment [1] (setting [4]) turned out to be 4.4e-08 M; in experiment [2], 0.559 µM.

As to `Cc1c(-c2c(-c3ccco3)sc3ncnc(OC(Cc4ccccc4OCc4ccc5ccccc5n4)C(=O)O)c23)ccc(OCCN2CCN(C)CC2)c1Cl` [Example 234, (2R)-2-{[(5Sa)-5-{3-chloro-2-methyl-4-[2-(4-methylpiperazin-1-yl)ethoxy]phenyl}-6-(furan-2-yl)thieno[2,3-d]pyrimidin-4-yl]oxy}-3-[2-(quinolin-2-ylmethoxy)phenyl]propanoic acid], the figures for the IC50 in experiment [1] (setting [3]) and in experiment [2] were 1.1e-08 M and 0.135 µM, respectively.

Values taken from patent publication US9670227B2, “Thienopyrimidine derivatives, a process for their preparation and pharmaceutical compositions containing them” (LES LABORATOIRES SERVIER, priority 2013, dated 2017).
